# Measurements taken from paper PMC5515969, “Effects of 31 FDA approved small-molecule kinase inhibitors on isolated rat liver mitochondria” (Archives of Toxicology, 2016).
# How the values were obtained:
# [1] = system: isolated rat liver mitochondria; experiment: Mitochondrial oxygen consumption (glutamate/malate or succinate driven, state 4 and state 3); assay type: biochemical; details: DMSO treated samples set as 1; on State 3 respiration driven by succinate at 10XCmax: key: 0 indicates that the drug had no effects (negative); on State 3 respiration driven by succinate at 1XCmax: key: 0 indicates that the drug had no effects (negative)
# Procedure, shortened: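 Oxygen uptake on glutamate/malate or on succinate defined state 4; ADP added 3 min later gave state 3. Mitochondria isolated from rat liver by differential centrifugation, adjusted to 1 mg/ml and pretreated 5 min with inhibitor (0.1% DMSO final). Values relative to DMSO control, set to 1.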
# RCC II = molecular target: T1, RCC II (Rattus norvegicus, UniProt P21913+Q641Z9+Q6PCT8+Q920L2); experiment: RCC II activity in submitochondrial particles; assay type: biochemical; parameters: key: activity relative to DMSO-treated controls (control set as 1 = 100%); details: relative to DMSO treated samples
# T1 construct: Submitochondrial particles were prepared by subjecting the intact mitochondria to three successive freeze–thaw cycles; from tissue; host or cells: rat liver mitochondria, used as submitochondrial particles
# Procedure, shortened: (§1)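 Abs 340 nm (I/V) or 600 nm (II), 1-min reads × 6 min; 550 nm (III, IV), 10-s reads × 2 min. RCC I = rotenone-free minus rotenone rate. DMSO control = 1.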
# RCC III = RCC III activity in submitochondrial particles; assay type: biochemical, rat; parameters: key to RCC III at 100XCmax: activity relative to DMSO-treated controls (control set as 1 = 100%); details: 100XCmax; relative to DMSO treated samples
# Procedure, shortened: as §1
# RCC IV = RCC IV activity in submitochondrial particles; assay type: biochemical, rat; parameters: key to RCC IV at 50XCmax / RCC IV at 100XCmax: activity relative to DMSO-treated controls (control set as 1 = 100%); details: 50XCmax; relative to DMSO treated samples; in %
# Procedure, shortened: as §1
# RCC V = RCC V activity in submitochondrial particles; assay type: biochemical, rat; details: relative to DMSO treated samples; on RCC V at 5XCmax: key: 0 indicates that the drug had no effects (negative)
# Procedure, shortened: as §1
# [2] = system: isolated rat liver mitochondria; experiment: Mitochondrial inner membrane potential (MMP), Rhodamine 123; assay type: biochemical; details: difference in signal between KI and DMSO treated samples at the end of experiments
# Excerpt: Fig. 3 KI effects on mitochondrial inner membrane potential (MMP). […] In a, c, data are means and standard derivations from three separate experiments. *p < 0.05 as compared to DMSO-treated samples at the end of experiments. In b, data are means of two independent experiments
# [3] = system: isolated rat liver mitochondria; details: positive control alamethicin treated samples
# [4] = cited from earlier work
# [5] = system: isolated rat liver mitochondria; experiment: Mitochondrial ROS production (CM-H2DCFDA); details: DMSO treated samples set as 1
# T1 sequence (Q920L2 35-656): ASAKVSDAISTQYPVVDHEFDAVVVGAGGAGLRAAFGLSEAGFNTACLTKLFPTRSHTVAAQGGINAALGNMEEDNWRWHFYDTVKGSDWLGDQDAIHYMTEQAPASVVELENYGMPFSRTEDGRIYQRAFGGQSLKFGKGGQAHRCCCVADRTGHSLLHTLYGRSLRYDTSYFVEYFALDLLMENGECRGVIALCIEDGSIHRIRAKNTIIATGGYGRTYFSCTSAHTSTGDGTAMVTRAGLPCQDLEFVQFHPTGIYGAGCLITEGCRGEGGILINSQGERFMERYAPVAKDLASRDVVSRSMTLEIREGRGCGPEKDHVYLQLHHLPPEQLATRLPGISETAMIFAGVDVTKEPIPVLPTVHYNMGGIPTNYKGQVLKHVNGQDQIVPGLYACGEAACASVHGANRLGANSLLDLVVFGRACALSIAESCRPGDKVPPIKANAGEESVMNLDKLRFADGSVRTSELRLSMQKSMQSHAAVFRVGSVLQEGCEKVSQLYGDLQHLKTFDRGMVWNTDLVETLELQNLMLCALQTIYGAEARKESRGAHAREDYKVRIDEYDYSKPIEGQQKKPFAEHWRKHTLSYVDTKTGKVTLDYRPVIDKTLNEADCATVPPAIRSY
# T1 sequence (P21913 31-282): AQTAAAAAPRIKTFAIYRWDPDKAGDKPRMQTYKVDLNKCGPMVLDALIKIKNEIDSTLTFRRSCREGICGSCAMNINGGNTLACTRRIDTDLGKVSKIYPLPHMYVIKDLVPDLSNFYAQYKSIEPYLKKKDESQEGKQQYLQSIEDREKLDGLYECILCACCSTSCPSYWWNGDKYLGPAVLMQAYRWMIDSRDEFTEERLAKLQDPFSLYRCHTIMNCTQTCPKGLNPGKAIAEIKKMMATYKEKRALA
# T1 sequence (Q641Z9 1-169): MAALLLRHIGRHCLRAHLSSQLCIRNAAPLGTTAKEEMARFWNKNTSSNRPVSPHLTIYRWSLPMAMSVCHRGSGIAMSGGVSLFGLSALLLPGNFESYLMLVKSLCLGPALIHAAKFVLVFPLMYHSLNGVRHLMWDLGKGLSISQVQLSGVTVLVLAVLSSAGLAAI
# T1 sequence (Q6PCT8 57-159): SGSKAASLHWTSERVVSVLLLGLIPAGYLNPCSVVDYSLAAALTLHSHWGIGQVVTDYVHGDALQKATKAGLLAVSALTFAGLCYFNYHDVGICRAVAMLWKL
structure (smiles),measurement,setting,value
CCN(CC)CCNC(=O)c1c(C)[nH]c(/C=C2\C(=O)Nc3ccc(F)cc32)c1C [sunitinib malate],State 3 respiration driven by glutamate/malate at 1XCmax,[1]; 1XCmax,0
same,State 3 respiration driven by succinate at 1XCmax,[1]; 1XCmax,0
same,State 4 respiration driven by glutamate/malate at 1XCmax,[1]; 1XCmax,0
same,State 4 respiration driven by succinate at 1XCmax,[1]; 1XCmax,0
same,State 3 respiration driven by glutamate/malate at 2.5XCmax,[1]; 2.5XCmax,0
same,State 3 respiration driven by succinate at 2.5XCmax,[1]; 2.5XCmax,0
same,State 4 respiration driven by glutamate/malate at 2.5XCmax,[1]; 2.5XCmax,0
same,State 4 respiration driven by succinate at 2.5XCmax,[1]; 2.5XCmax,0
same,State 3 respiration driven by glutamate/malate at 5XCmax,[1]; 5XCmax,0
same,State 3 respiration driven by succinate at 5XCmax,[1]; 5XCmax,0
same,State 4 respiration driven by glutamate/malate at 5XCmax,[1]; 5XCmax,0
same,State 4 respiration driven by succinate at 5XCmax,[1]; 5XCmax,0
same,State 3 respiration driven by glutamate/malate at 10XCmax,[1]; 10XCmax,0
same,State 3 respiration driven by succinate at 10XCmax,[1]; 10XCmax,0
same,State 4 respiration driven by glutamate/malate at 10XCmax,[1]; 10XCmax,0
same,State 4 respiration driven by succinate at 10XCmax,[1]; 10XCmax,0
same,State 3 respiration driven by glutamate/malate at 20XCmax,[1]; 20XCmax,0
same,State 3 respiration driven by succinate at 20XCmax,[1]; 20XCmax,0
same,State 4 respiration driven by glutamate/malate at 20XCmax,[1]; 20XCmax,0
same,State 4 respiration driven by succinate at 20XCmax,[1]; 20XCmax,0
same,State 3 respiration driven by glutamate/malate at 30XCmax,[1]; 30XCmax,0
same,State 3 respiration driven by succinate at 30XCmax,[1]; 30XCmax,0
same,State 4 respiration driven by glutamate/malate at 30XCmax,[1]; 30XCmax,0
same,State 4 respiration driven by succinate at 30XCmax,[1]; 30XCmax,0
same,State 3 respiration driven by glutamate/malate at 50XCmax,[1]; 50XCmax,0
same,State 3 respiration driven by succinate at 50XCmax,[1]; 50XCmax,0
same,State 4 respiration driven by glutamate/malate at 50XCmax,[1]; 50XCmax,0
same,State 4 respiration driven by succinate at 50XCmax,[1]; 50XCmax,0
same,State 3 respiration driven by glutamate/malate at 100XCmax,[1]; 100XCmax,0
same,State 3 respiration driven by succinate at 100XCmax,[1]; 100XCmax,0
same,State 4 respiration driven by glutamate/malate at 100XCmax,[1]; 100XCmax,0
same,State 4 respiration driven by succinate at 100XCmax,[1]; 100XCmax,0
same,RCC II at 1.0XCmax,RCC II; 1.0XCmax,0
same,RCC II at 2.5XCmax,RCC II; 2.5XCmax,0
same,RCC II at 5XCmax,RCC II; 5XCmax,0
same,RCC II at 10XCmax,RCC II; 10XCmax,0
same,RCC II at 20XCmax,RCC II; 20XCmax,0
same,RCC II at 30XCmax,RCC II; 30XCmax,0
same,RCC II at 50XCmax,RCC II; 50XCmax,0
same,RCC II at 100XCmax,RCC II; 100XCmax,0
same,RCC III at 100XCmax,RCC III,0
same,RCC IV at 50XCmax,RCC IV,0
same,RCC V at 5XCmax,RCC V; 5XCmax,0
same,RCC V at 50XCmax,RCC V; 50XCmax,0
same,MMP measured by Rhodamine 123 at 1XCmax,[2]; 1XCmax,0
same,MMP measured by Rhodamine 123 at 2.5XCmax,[2]; 2.5XCmax,0
same,MMP measured by Rhodamine 123 at 5XCmax,[2]; 5XCmax,0
same,MMP measured by Rhodamine 123 at 10XCmax,[2]; 10XCmax,0
same,MMP measured by Rhodamine 123 at 20XCmax,[2]; 20XCmax,0
same,MMP measured by Rhodamine 123 at 30XCmax,[2]; 30XCmax,0
same,MMP measured by Rhodamine 123 at 50XCmax,[2]; 50XCmax,0
same,MMP measured by Rhodamine 123 at 100XCmax,[2]; 100XCmax,0
same,Cytochrome c release 1XCmax,[3]; 1XCmax,0
same,Cytochrome c release 2.5XCmax,[3]; 2.5XCmax,0
same,Cytochrome c release 5XCmax,[3]; 5XCmax,0
same,Cytochrome c release 10XCmax,[3]; 10XCmax,0
same,Cytochrome c release 20XCmax,[3]; 20XCmax,0
same,Cytochrome c release 30XCmax,[3]; 30XCmax,0
same,Cytochrome c release 50XCmax,[3]; 50XCmax,0
same,Cytochrome c release 100XCmax,[3]; 100XCmax,0
same,DILI potential (based on labeling),"[4]; 1 = DILI positive, 0 = negative, ref product labeling",1
same,Labeling for DILI,[4]; in vivo,BBW: fatal DILI
same,ROS measured by CM-H2DCFDA at 1XCmax,[5]; 1XCmax,0
same,ROS measured by CM-H2DCFDA at 2.5XCmax,[5]; 2.5XCmax,0
same,ROS measured by CM-H2DCFDA at 5XCmax,[5]; 5XCmax,0
same,ROS measured by CM-H2DCFDA at 10XCmax,[5]; 10XCmax,0
same,ROS measured by CM-H2DCFDA at 20XCmax,[5]; 20XCmax,0
same,ROS measured by CM-H2DCFDA at 30XCmax,[5]; 30XCmax,0
same,ROS measured by CM-H2DCFDA at 50XCmax,[5]; 50XCmax,0
same,ROS measured by CM-H2DCFDA at 100XCmax,[5]; 100XCmax,0
